# Patent US6743413B1, “Suspension aerosol formulations” (3M Company, priority 1991, dated 2004)
# Where “and” joins values, the source holds several entries; their conditions need not be identical. Identical values can stand only once.
# Legend:
# Format in all cases: physicochemical
# [1] = Visual observation of suspension aerosol formulations (dispersion, flocculation, settling, creaming, suitability for metered dose inhaler)
# Experimental: (§1) For each of the micronized drug substances A-G set forth below, formulations were prepared at drug concentrations of 0.017 percent, 0.039 percent, 0.083 percent, 0.41 percent, and 1.6 percent by weight based on the total weight of the formulation (corresponding to 0.20 mg/mL, 0.50 mg/mL, 1.0 mg/mL, 5.0 mg/Ml, and 20 mg/mL, respectively). The formulations were prepared by dispersing micronized drug in HFC 134a in a sealed 15 mL clear PET vial using ultrasonic energy.
# For each propellant mix the range of drug concentrations used in Example 1 was used.
# BDP formulations were prepared at 0.070 percent by weight (1.0 mg/mL) in HFC 227 and at 0.38 percent by weight (5.0 mg/mL) in a 1:1 mixture of HFC 227 and HFC 134a.
# Formulations of salmeterol free base at 0.02 percent by weight and 0.05 percent by weight were prepared in HFC 134a and in HFC 227 by placing the drug and 5 mL of glass beads into a 15 mL glass vial, crimping on a continuous valve, and adding the appropriate amount of propellant. The formulations were shaken on a paint shaker for 10 min in order to disperse the drug.
# The vial was then shaken on a paint shaker, chilled, and the contents transferred to 10 mL vials fitted with the metered dose valve. […] Valve delivery was measured through the life of the formulations.
# [2] = Visual assessment of suspension formulations by time lapse photography 10 and 30 seconds after agitation; set-up: key: + = visually acceptable formulation; − = visually unacceptable formulation; ? = border line acceptable formulation
# Experimental: as §1
# Using time lapse photography 10 and 30 seconds after agitation the formulations were assessed as follows: […]
# The formulations were photographed using time lapse photography at 10 and 30 seconds post agitation and were assessed as follows: […]
# [3] = Respirable fraction (Anderson Cascade Impactor)
# Experimental: In this assay the respirable fraction (the percent by weight of particles having an aerodynamic particle size of less than 4.7 microns) of the aerosol suspension is determined using an Anderson Cascade Impactor (available from Anderson Sampler Inc,; Atlanta, Ga.).
# The aerosol vial to be tested is primed five times. The valve and valve stem are then cleaned with methanol and dried with compressed air. The aerosol vial and a clean, dry actuator are coupled to the glass throat attached to the top of the impactor using an appropriate firing adaptor. The calibrated vacuum pump (28.3 L/min) attached to the cascade impactor is turned on. A total of 20 sprays is delivered into the cascade impactor by repeatedly shaking the vial, seating it in the actuator and immediately delivering a single spray. The time between sprays is approximately 30 seconds. The cascade impactor is disassembled and each component is rinsed separately with diluent (55 parts methanol mixed with 45 parts of 0.1 percent aqueous phosphoric acid, v/v). Each solution is analyzed for pirbuterol acetate content using high performance liquid chromatography. The respirable fraction is calculated as follows:
# % respirable=drug recovered from plates 3-7×100 total drug−drug recovered from recovered actuator and valve
# In Examples 13-14 below respirable fraction is determined using the test method described above but using a diluent of 45 parts by volume methanol and 55 parts by volume of 0.1 percent aqueous phosphoric acid.
# [4] = Suspension aerosol particle size analysis (Malvern Mastersizer, laser diffraction); details: Example 7: 0.02 percent by weight in HFC 134a
# Experimental: The particle size distribution of drug in the aerosol suspension is assayed by Malvern Mastersizer™ Particle Size Analyser using a suspending medium of 0.01 percent sorbitan trioleate in heptane.
# Using a primed connector, shots are fired via an injection adapter into the Malvern sample cell containing the suspending medium. When a suitable level of obscuration (in the range 8.5-9) is achieved, analysis by laser diffraction is then performed.
# The results below show the percentage by weight of particles having particle size below 10.7 μm, below 5.07 μm, and below 1.95 μm. The “Initial” entries represent the average of three independent determinations, and the “25° C.”, “CYC”, and “HHC” entries represent a single determination after one month under the indicated storage conditions.
# [5] = Twin stage impinger deposition of emitted dose; details: Example 7: 0.02 percent by weight in HFC 134a
# From the text: Glass impinger apparatus A (BP198 Appendix XV11C) is used. To determine the deposition of the emitted dose, the apparatus is assembled as described. The oral adapter is attached to the throatpiece of the apparatus, and a suitable pump is connected to the outlet of the apparatus. The air flow through the apparatus is 60 ±5 liters per minute measured at the inlet of the throat. […] Ten shots are then fired via the adapter into the apparatus from the canister.
# The apparatus is then dismantled and each stage washed with the appropriate amount of methanol. The washings are assayed by HPLC to give the content of the drug found at each stage and also the material balance.
# [6] = Visual assessment of suspension formulations by time lapse photography 10 and 30 seconds after agitation; set-up: key: + = visually acceptable formulation; − = visually unacceptable formulation; ? = border line acceptable formulation; details: 10 and 30 seconds post agitation
# [7] = Example 1: drug concentration 0.017 % in HFC 134a alone
# [8] = Example 1: drug concentration 0.039 % in HFC 134a alone
# [9] = Example 1: drug concentration 0.083 % in HFC 134a alone
# [10] = Example 1: drug concentration 0.41 % in HFC 134a alone
# [11] = Example 1: drug concentration 1.63 % in HFC 134a alone
# [12] = 1 Month CYC (cycled between 15° C. and 37° C.)
# [13] = 1 Month HHC (approximately 40° C. and 85 percent relative humidity)
# [14] = Initial (average of three determinations)
compound,measurement,setting,value
Pirbuterol acetate,suitability for metered dose inhaler,[1]; Example 9: 0.9 percent by weight pirbuterol acetate in HFC 227,deemed to be suitable for use in connection with a metered dose inhaler
same,suitability for metered dose inhaler,"[1]; Example 10: 0.90 percent pirbuterol acetate, 0.23 percent oleic acid, 10.0 percent ethanol, HFC 227",deemed to be suitable for use in connection with a metered dose inhaler
same,visual assessment of formulation,[2]; [7],+
same,visual assessment of formulation,[2]; [8],+
same,visual assessment of formulation,[2]; [9],?
same,visual assessment of formulation,[2]; [10],?
same,visual assessment of formulation,[2]; [11],+
same,respirable fraction (aerodynamic particle size less than 4.7 microns),"[3]; Example 11: 0.9 percent by weight pirbuterol acetate in HFC 227, duplicate, two vials",59.1% and 54.8% and 53.9% and 49.3%
same,respirable fraction (aerodynamic particle size less than 4.7 microns),"[3]; Example 12: 0.9 percent pirbuterol acetate, 10 percent ethanol, HFC 227, duplicate, two vials",34.9% and 32.5% and 31.7% and 31.3%
same,respirable fraction (aerodynamic particle size less than 4.7 microns),"[3]; Example 16: 0.9 percent pirbuterol acetate, 3 percent ethanol, HFC 227, two separate vials",59.8% and 52.8%
same,respirable fraction (aerodynamic particle size less than 4.7 microns),"[3]; Example 17: 0.9 percent pirbuterol acetate, 5 percent ethanol, HFC 227, two separate vials",48.2% and 43.5%
COc1ccc(C[C@@H](C)NC[C@H](O)c2ccc(O)c(NC=O)c2)cc1.COc1ccc(C[C@@H](C)NC[C@H](O)c2ccc(O)c(NC=O)c2)cc1.O=C(O)/C=C/C(=O)O [Formoterol fumarate],flocculation and sedimentation rate,[1]; Example 3: 1:1 (W/W) HFC 134a/HFC 227 versus corresponding formulations in HFC 134a alone,reduced flocculation and a slower sedimentation rate
same,particles with particle size <1.95 μm,[4]; [12],36.1 Percent by weight and 32.5 Percent by weight
same,particles with particle size <5.07 μm,[4]; [12],92.9 Percent by weight and 92.5 Percent by weight
same,particles with particle size <10.7 μm,[4]; [12],99.8 Percent by weight
same,particles with particle size <1.95 μm,[4]; [13],33.5 Percent by weight and 34.9 Percent by weight
same,particles with particle size <5.07 μm,[4]; [13],93.1 Percent by weight and 92.4 Percent by weight
same,particles with particle size <10.7 μm,[4]; [13],99.8 Percent by weight and 99.7 Percent by weight
same,particles with particle size <1.95 μm,[4]; 1 Month stored at 25° C.,36.3 Percent by weight and 31.7 Percent by weight
same,particles with particle size <5.07 μm,[4]; 1 Month stored at 25° C.,93.6 Percent by weight and 94.8 Percent by weight
same,particles with particle size <10.7 μm,[4]; 1 Month stored at 25° C.,99.8 Percent by weight and 99.9 Percent by weight
same,particles with particle size <1.95 μm,[4]; [14],32.2 Percent by weight and 30.5 Percent by weight
same,particles with particle size <5.07 μm,[4]; [14],93.4 Percent by weight and 92.6 Percent by weight
same,particles with particle size <10.7 μm,[4]; [14],99.6 Percent by weight and 98.0 Percent by weight
same,% Stem/Adapter,[5]; 1 Month (25° C.),52.0% and 52.5%
same,%Stage 1,[5]; 1 Month (25° C.),16.7% and 23.9%
same,%Stage 2,[5]; 1 Month (25° C.),31.3% and 23.6%
same,% Stem/Adapter,[5]; 1 Month (CYC),16.8% and 24.6%
same,%Stage 1,[5]; 1 Month (CYC),53.6% and 47.6%
same,%Stage 2,[5]; 1 Month (CYC),29.7% and 27.8%
same,%Stage 1,[5]; 1 Month (HHC),37.0% and 60.4%
same,%Stage 2,[5]; 1 Month (HHC),29.0% and 24.3%
same,% Stem/Adapter,[5]; Initial,26.0% and 24.7% and 28.5%
same,%Stage 1,[5]; Initial,37.5% and 35.3% and 36.7%
same,%Stage 2,[5]; Initial,36.5% and 40.0% and 34.8%
same,visual assessment of formulation,[2]; [7],+
same,visual assessment of formulation,[2]; [8],?
same,visual assessment of formulation,[2]; [9],?
same,visual assessment of formulation,[2]; [10],−
same,visual assessment of formulation,[2]; [11],+
same,Assessment (visual),[6]; Example 3: drug concentration 0.015 % in 1:1 HFC 134a/HFC 227,+
same,Assessment (visual),[6]; Example 3: drug concentration 0.038 % in 1:1 HFC 134a/HFC 227,+
same,Assessment (visual),[6]; Example 3: drug concentration 0.076 % in 1:1 HFC 134a/HFC 227,?
same,Assessment (visual),[6]; Example 3: drug concentration 0.38 % in 1:1 HFC 134a/HFC 227,?
same,Assessment (visual),[6]; Example 3: drug concentration 1.5 % in 1:1 HFC 134a/HFC 227,+
Albuterol sulfate,homogeneity of formulation,"[1]; Comparative Example: CFC propellant mixes A and B (Propellants 11/114/12), no surfactant, 0.20, 0.50 and 1.0 mg/mL",acceptably homogenous
same,caking of drug on container walls,[1]; Comparative Example: CFC propellant mixes A and B versus HFC 134a counterparts of Example 1,more caking of drug on the walls of the container than their HFC 134a counterparts
same,flocculation,"[1]; Comparative Example: CFC propellant mixes A and B, no surfactant, 5.0 and 20 mg/mL",relatively rapid flocculation
same,suitability for metered dose inhaler,"[1]; Example 15: 0.37 percent albuterol sulfate, 0.10 percent sorbitan trioleate, 9.95 percent ethanol, 89.58 percent HFC 227",deemed to be suitable for use in connection with a metered dose inhaler
same,visual assessment of formulation,[2]; [7],+
same,visual assessment of formulation,[2]; [8],+
same,visual assessment of formulation,[2]; [9],+
same,visual assessment of formulation,[2]; [10],−
same,visual assessment of formulation,[2]; [11],−
same,respirable fraction (aerodynamic particle size less than 4.7 microns),"[3]; Example 13: 0.4 percent by weight albuterol sulfate in HFC 227, duplicate, two vials",69.3% and 60.6% and 64.0% and 63.0%
same,respirable fraction (aerodynamic particle size less than 4.7 microns),"[3]; Example 14: 0.40 percent albuterol sulfate, 0.50 percent oleic acid, 15.0 percent ethanol, HFC 227, duplicate, two vials",28.0% and 22.0% and 27.1% and 28.8%
